Literature values, collected in patent publication US20050037366A1, “Individual drug safety” (priority 2003, published 2005).
“Also recorded” adds a separate entry of the source.

Tests used:
[1] = men with hormone-refractory prostate cancer
[2] = rats
[3] = in vivo
ABCC2 (MRP2, cMOAT) = molecular target: T1, ABCC2 (MRP2, cMOAT) (Rattus norvegicus, UniProt Q63120); conditions: rats; ABCC2-mediated mechanisms
T1 construct: host or cells: rats (in vivo, liver canalicular membrane)
T1 sequence (Q63120 whole entry): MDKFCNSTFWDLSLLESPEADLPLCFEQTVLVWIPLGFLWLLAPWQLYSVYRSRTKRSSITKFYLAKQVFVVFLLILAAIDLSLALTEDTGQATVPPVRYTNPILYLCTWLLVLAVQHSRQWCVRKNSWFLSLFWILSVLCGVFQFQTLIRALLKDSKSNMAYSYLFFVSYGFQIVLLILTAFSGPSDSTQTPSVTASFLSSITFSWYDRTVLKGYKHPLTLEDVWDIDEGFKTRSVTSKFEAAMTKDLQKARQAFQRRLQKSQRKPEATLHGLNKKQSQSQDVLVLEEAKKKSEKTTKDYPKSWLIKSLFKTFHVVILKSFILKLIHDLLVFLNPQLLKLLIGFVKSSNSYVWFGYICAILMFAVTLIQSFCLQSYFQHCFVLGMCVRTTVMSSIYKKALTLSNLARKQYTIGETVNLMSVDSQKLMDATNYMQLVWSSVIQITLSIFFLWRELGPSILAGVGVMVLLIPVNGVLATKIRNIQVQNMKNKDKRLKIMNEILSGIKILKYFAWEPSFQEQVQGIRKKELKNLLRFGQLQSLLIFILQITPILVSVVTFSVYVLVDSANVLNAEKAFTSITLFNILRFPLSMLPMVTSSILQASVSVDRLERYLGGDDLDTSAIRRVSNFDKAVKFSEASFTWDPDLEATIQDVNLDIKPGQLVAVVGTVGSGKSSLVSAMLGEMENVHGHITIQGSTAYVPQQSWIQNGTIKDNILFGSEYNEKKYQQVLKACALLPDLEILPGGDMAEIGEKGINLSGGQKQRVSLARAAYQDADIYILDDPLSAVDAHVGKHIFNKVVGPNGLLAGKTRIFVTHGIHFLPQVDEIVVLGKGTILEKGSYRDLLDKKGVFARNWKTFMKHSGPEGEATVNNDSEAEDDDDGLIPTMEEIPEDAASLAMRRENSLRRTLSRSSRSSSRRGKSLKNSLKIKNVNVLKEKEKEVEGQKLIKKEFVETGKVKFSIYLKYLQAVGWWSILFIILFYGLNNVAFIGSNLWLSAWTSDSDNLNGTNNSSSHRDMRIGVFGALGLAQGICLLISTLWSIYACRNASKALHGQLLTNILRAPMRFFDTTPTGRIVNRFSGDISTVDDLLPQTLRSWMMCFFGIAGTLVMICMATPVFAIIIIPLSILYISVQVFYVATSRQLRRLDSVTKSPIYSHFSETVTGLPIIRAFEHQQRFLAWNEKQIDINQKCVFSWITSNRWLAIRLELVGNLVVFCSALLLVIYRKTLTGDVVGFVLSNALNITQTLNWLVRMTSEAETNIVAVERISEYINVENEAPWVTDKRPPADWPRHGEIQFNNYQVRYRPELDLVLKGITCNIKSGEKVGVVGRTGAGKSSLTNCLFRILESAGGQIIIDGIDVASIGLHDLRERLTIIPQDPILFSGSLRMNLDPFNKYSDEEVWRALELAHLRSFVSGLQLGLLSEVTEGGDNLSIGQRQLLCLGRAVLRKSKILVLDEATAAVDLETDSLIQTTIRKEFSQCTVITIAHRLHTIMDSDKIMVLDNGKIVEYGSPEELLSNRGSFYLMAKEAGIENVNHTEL

CCCCN(CCCC)C(=O)CN1C[C@H](c2ccc3c(c2)OCO3)[C@@H](C(=O)O)[C@@H]1c1ccc(OC)cc1 [Atrasentan]
ADRs in phase II study [1]: headache, peripheral edema and rhinitis

CCCC[C@@H](NC(=O)[C@@H](Cc1cn(C(=O)OC)c2ccccc12)NC(=O)[C@H](CC(C)(C)C)NC(=O)N1[C@H](C)CCC[C@@H]1C)C(=O)O [BQ-788]
cerebral blood flow [2]: decrease of cerebral blood flow

COc1ccccc1Oc1c(NS(=O)(=O)c2ccc(C(C)(C)C)cc2)nc(-c2ncccn2)nc1OCCO [Bosentan]
ADR: liver injury [3]: can lead to liver injury; also recorded: can induce cholestatic liver injury | canalicular bile formation (ABCC2 (MRP2, cMOAT)): alters canalicular bile formation | effect on Bsep-mediated canalicular bile salt transport (Bsep (ABCB 11)): inhibition of Bsep-mediated canalicular bile salt transport
